Experimental data as given in ChEMBL document CHEMBL1138755, “A peptide nucleic acid-neamine conjugate that targets and cleaves HIV-1 TAR RNA inhibits viral replication” (J Med Chem, 2004).

Tested on: Human immunodeficiency virus 1
Assay: Ability of the conjugate to block HIV-1 production when supplemented in a culture medium; NI= No inhibition of the HIV-1 replication even at concentration >5 uM
Type: functional, organism-based

NC[C@H]1O[C@H](O[C@H]2[C@H](O)[C@@H](O)[C@H](N)C[C@@H]2N)[C@H](N)[C@@H](O)[C@@H]1O
inhibition: No inhibition
